The NIST ThermoML archive (doi:10.1021/je101209e)
Numbers after ± are expanded uncertainties.

What was measured:
[1] = Fluid (supercritical or subcritical phases), isochoric method
[2] = molar heat capacity at constant volume; conditions: Fluid (supercritical or subcritical phases), Vacuum adiabatic calorimetry
[3] = xn = mol fraction of the nth substance listed; conditions: Fluid (supercritical or subcritical phases), isochoric method, x1 = 0.489
[4] = molar heat capacity at constant volume; xn = mol fraction of the nth substance listed; conditions: Fluid (supercritical or subcritical phases), Vacuum adiabatic calorimetry, x1 = 0.489

F/C=C/C(F)(F)F [trans-1,3,3,3-tetrafluoropropene]
Conditions	mass density, [1] [kg/m3]	molar heat capacity at constant volume, [2] [J/K/mol]
270.15 K, 5540 kPa	1266.6 ± 2	107.31 ± 4.9
275.15 K, 7679 kPa	1266.2 ± 2	107.2 ± 4.9
280.15 K, 9813 kPa	1265.7 ± 2	108 ± 5
285.15 K, 11937 kPa	1265.3 ± 2	107.88 ± 5
290.15 K, 14055 kPa	1264.9 ± 2	107.43 ± 4.9
295.15 K, 2684 kPa	1185 ± 1.9	110.39 ± 5.1
295.15 K, 16163 kPa	1264.4 ± 2	107.2 ± 4.9
300.15 K, 4324 kPa	1184.7 ± 1.9	111.19 ± 5.1
305.15 K, 5963 kPa	1184.3 ± 1.9	111.42 ± 5.1
310.15 K, 7598 kPa	1184 ± 1.9	112.22 ± 5.1
315.15 K, 9231 kPa	1183.6 ± 1.9	111.99 ± 5.1
320.15 K, 10858 kPa	1183.3 ± 1.9	112.9 ± 5.2
325.15 K, 12483 kPa	1182.9 ± 1.9	112.45 ± 5.1
330.15 K, 14103 kPa	1182.5 ± 1.9	113.13 ± 5.2
335.15 K, 3368 kPa	1048.2 ± 1.7	122.82 ± 5.7
335.15 K, 15720 kPa	1182.2 ± 1.9	111.99 ± 5.1
340.15 K, 4423 kPa	1047.9 ± 1.7	121.57 ± 5.6
345.15 K, 5477 kPa	1047.7 ± 1.7	121.91 ± 5.6
350.15 K, 6529 kPa	1047.4 ± 1.8	121 ± 5.6
355.15 K, 7582 kPa	1047.1 ± 1.7	119.97 ± 5.5
360.15 K, 8633 kPa	1046.9 ± 1.7	118.83 ± 5.5
365.15 K, 9684 kPa	1046.6 ± 1.7	118.49 ± 5.5
370.15 K, 10734 kPa	1046.3 ± 1.7	118.95 ± 5.5
375.15 K, 11784 kPa	1046.1 ± 1.7	119.06 ± 5.5
380.15 K, 12833 kPa	1045.8 ± 1.7	120.88 ± 5.6
385.15 K, 4344 kPa	717.5 ± 1.2	195.81 ± 9
385.15 K, 13882 kPa	1045.6 ± 1.7	121 ± 5.6
390.15 K, 4695 kPa	717.4 ± 1.2	192.84 ± 8.9
390.15 K, 14930 kPa	1045.3 ± 1.7	120.43 ± 5.6
395.15 K, 5051 kPa	717.3 ± 1.2	190.11 ± 8.8
395.15 K, 15976 kPa	1045 ± 1.7	122.14 ± 5.6
400.15 K, 5410 kPa	717.1 ± 1.2	185.43 ± 8.6
405.15 K, 5772 kPa	717 ± 1.2	181.21 ± 8.3
410.15 K, 6137 kPa	716.9 ± 1.2	176.31 ± 8.1
415.15 K, 6503 kPa	716.8 ± 1.2	174.37 ± 8.7
420.15 K, 6872 kPa	716.7 ± 1.2	171.18 ± 8.1
425.15 K, 7243 kPa	716.6 ± 1.2	167.53 ± 7.8

F/C=C/C(F)(F)F [trans-1,3,3,3-tetrafluoropropene] + O=C=O
Conditions	mass density, [3] [kg/m3]	molar heat capacity at constant volume, [4] [J/K/mol]
270.15 K, 10302 kPa	1191.8 ± 1.9	74.42 ± 3.4
275.15 K, 14848 kPa	1191 ± 1.9	74.81 ± 3.4
280.15 K, 19370 kPa	1190.1 ± 1.9	75.36 ± 3.4
285.15 K, 23857 kPa	1189.2 ± 1.9	75.44 ± 3.4
286.15 K, 24752 kPa	1189 ± 1.9	77.71 ± 3.6
290.15 K, 7501 kPa	1115.7 ± 1.8	76.77 ± 3.5
290.15 K, 28318 kPa	1188.3 ± 1.9	75.75 ± 3.5
295.15 K, 11107 kPa	1115 ± 1.8	77.86 ± 3.6
300.15 K, 14713 kPa	1114.2 ± 1.8	78.41 ± 3.6
301.15 K, 15434 kPa	1114.1 ± 1.8	78.57 ± 3.6
302.15 K, 16154 kPa	1114 ± 1.8	78.33 ± 3.6
303.15 K, 16872 kPa	1113.8 ± 1.8	77.63 ± 3.6
306.15 K, 19026 kPa	1113.3 ± 1.8	76.61 ± 3.5
310.15 K, 21888 kPa	1112.7 ± 1.8	79.59 ± 3.7
315.15 K, 25455 kPa	1112 ± 1.8	79.12 ± 3.7
320.15 K, 9139 kPa	1003.8 ± 1.6	75.59 ± 3.5
320.15 K, 28987 kPa	1111.2 ± 1.8	78.18 ± 3.6
325.15 K, 11633 kPa	1003.2 ± 1.6	76.38 ± 3.5
330.15 K, 14125 kPa	1002.7 ± 1.6	75.99 ± 3.5
335.15 K, 16616 kPa	1002.1 ± 1.6	74.81 ± 3.4
340.15 K, 19103 kPa	1001.6 ± 1.6	74.81 ± 3.4
345.15 K, 21584 kPa	1001 ± 1.6	76.85 ± 3.5
350.15 K, 24061 kPa	1000.4 ± 1.6	76.46 ± 3.5
355.15 K, 26532 kPa	999.9 ± 1.6	76.53 ± 3.5
360.15 K, 28998 kPa	999.3 ± 1.6	78.8 ± 3.6
361.15 K, 7303 kPa	648.9 ± 1.1	98.76 ± 4.5
365.15 K, 7938 kPa	648.7 ± 1.1	97.58 ± 4.5
370.15 K, 8742 kPa	648.5 ± 1.1	100.71 ± 4.6
375.15 K, 9557 kPa	648.3 ± 1.1	103.3 ± 4.8
380.15 K, 10380 kPa	648.1 ± 1.1	104.86 ± 4.9
385.15 K, 11211 kPa	647.9 ± 1.1	104.47 ± 4.8
390.15 K, 12047 kPa	647.6 ± 1.1	106.11 ± 4.9
395.15 K, 12887 kPa	647.4 ± 1.1	107.91 ± 5
400.15 K, 13731 kPa	647.2 ± 1.1	103.92 ± 4.8
405.15 K, 14576 kPa	647 ± 1.1	102.28 ± 4.7
410.15 K, 15424 kPa	646.8 ± 1.1	97.11 ± 4.5
415.15 K, 16273 kPa	646.6 ± 1.1	93.67 ± 4.3
420.15 K, 17122 kPa	646.3 ± 1.1	92.5 ± 4.2
425.15 K, 17972 kPa	646.1 ± 1.1	91.79 ± 4.2
